# Test results taken from ChEMBL document CHEMBL1201862, “PubChem BioAssay data set” (2004).
# Activity calls are given as the source filed them.
# Assays:
# [1] = target: T1, Lysine-specific demethylase 4C (Homo sapiens, UniProt Q9H3R0); test: GASC-1 (JMJD2C) histone demethylase inhibitors, dose response, biochemical, DELFIA europium, cherry-picked samples (AID 488835); assay type: functional
# T1 sequence (Q9H3R0 whole entry): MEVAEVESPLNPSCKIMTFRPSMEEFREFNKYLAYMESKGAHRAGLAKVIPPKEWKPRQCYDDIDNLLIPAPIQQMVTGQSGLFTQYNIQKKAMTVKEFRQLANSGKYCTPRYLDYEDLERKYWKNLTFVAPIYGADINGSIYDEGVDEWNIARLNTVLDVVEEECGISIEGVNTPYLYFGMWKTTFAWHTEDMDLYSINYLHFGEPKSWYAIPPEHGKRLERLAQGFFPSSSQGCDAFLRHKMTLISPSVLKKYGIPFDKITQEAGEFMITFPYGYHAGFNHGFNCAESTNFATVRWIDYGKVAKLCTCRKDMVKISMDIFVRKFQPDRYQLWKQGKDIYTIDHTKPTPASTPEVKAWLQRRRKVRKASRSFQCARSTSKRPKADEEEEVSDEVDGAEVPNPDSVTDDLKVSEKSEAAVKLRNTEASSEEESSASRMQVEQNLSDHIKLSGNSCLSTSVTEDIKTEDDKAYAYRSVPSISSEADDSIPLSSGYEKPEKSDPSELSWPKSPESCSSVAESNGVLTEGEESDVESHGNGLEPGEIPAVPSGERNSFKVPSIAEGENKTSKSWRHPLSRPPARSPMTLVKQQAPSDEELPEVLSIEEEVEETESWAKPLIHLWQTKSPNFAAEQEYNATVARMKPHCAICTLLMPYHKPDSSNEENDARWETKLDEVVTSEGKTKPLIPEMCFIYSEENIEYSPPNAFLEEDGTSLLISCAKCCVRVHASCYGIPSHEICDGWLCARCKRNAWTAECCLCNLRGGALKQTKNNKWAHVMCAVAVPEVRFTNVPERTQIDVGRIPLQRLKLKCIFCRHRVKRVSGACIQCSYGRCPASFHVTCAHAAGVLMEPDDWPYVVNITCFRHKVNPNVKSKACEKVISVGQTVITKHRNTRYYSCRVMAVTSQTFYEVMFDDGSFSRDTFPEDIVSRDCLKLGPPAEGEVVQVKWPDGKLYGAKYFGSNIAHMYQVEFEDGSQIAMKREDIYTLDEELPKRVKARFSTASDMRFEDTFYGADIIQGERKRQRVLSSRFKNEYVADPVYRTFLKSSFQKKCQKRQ
# [2] = insulin promoter down-regulators in MIN6 cells, imaging, high-content screening, mouse beta cells (AID 1628); assay type: functional
# [3] = test system: INS1; test: beta cell apoptosis inhibitors, cytokine rescue, dose response, luminescence, retest (AID 449756); assay type: functional, cell-based; details: Rattus norvegicus;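 note: cell death triggered by IL-1 beta plus TNF-alpha plus IFN-gamma mixture; protective hits raise ATP signal compared with cytokine alone wells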
# [4] = cytotoxicity in MIN6 insulinoma cells, dose response, cytotoxicity control, cell-based, mouse insulinoma (AID 2122); assay type: functional;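 note: confirmatory high-throughput counterscreen run to flag cytotoxic compounds; mouse MIN-6 beta cells carrying an insulin promoter eGFP reporter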
# [5] = target: T2, Nuclear receptor subfamily 0 group B member 1 (Homo sapiens, UniProt P51843); test: Luminescence-based cell-based high throughput dose response assay for inhibitors of the orphan nuclear receptor subfamily 0, group B, member 1 (DAX1; NR0B1). [Related pubchem assays (depositor defined):AID504766, AID504790]; assay type: functional
# T2 sequence (P51843 whole entry): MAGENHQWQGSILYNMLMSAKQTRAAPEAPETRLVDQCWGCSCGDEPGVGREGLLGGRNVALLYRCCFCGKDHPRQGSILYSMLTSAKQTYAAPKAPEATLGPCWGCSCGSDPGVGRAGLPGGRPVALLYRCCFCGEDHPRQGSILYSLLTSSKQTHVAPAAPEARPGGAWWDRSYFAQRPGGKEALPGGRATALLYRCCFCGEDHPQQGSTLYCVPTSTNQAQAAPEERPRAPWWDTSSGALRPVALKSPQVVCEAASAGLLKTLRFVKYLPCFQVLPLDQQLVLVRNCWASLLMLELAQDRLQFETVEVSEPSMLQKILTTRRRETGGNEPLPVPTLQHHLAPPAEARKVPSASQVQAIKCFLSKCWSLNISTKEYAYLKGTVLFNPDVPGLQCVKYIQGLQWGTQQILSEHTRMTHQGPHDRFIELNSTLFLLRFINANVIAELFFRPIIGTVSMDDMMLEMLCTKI
# [6] = test system: HEK293; test: cells; assay type: functional, cell-based; details: Homo sapiens
# [7] = target: Genome polyprotein (dengue virus type 2, UniProt P29990); test: Dengue-2 NS5 methyltransferase inhibitors, primary screen, biochemical, confirmation dose response (AID 588689); assay type: functional
# Genome polyprotein, sequence (P29990 2492-3391 limits assumed): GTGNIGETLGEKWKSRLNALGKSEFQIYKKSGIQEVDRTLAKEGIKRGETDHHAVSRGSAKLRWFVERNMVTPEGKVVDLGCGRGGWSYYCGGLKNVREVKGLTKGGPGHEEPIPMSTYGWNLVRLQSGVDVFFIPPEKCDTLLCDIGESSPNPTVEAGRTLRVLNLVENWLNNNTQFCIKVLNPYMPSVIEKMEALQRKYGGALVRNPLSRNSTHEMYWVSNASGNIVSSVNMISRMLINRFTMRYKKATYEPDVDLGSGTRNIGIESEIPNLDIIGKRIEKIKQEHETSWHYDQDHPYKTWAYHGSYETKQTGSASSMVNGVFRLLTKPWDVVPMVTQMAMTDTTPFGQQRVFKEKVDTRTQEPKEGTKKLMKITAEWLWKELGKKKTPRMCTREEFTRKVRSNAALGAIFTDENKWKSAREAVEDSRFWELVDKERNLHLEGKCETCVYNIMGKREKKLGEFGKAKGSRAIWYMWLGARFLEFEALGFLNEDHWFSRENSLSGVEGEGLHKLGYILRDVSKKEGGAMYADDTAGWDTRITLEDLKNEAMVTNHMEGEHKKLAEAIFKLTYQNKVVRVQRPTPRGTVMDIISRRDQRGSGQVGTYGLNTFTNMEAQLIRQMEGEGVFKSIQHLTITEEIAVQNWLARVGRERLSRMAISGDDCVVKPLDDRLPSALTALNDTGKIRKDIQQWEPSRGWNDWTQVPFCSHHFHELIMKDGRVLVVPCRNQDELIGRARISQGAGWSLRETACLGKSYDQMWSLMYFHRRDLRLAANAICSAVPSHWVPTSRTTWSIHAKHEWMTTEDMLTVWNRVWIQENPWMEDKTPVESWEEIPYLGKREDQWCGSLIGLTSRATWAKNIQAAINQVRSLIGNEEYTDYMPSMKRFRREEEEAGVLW
# [8] = target: T3, CAAX prenyl protease 2 (Homo sapiens, UniProt Q9Y256); test: human Rce1 protease inhibitors, dose response, biochemical, yeast membranes, quenched-peptide fluorescence, cherry-pick (AID 588849)
# T3 sequence (Q9Y256 whole entry): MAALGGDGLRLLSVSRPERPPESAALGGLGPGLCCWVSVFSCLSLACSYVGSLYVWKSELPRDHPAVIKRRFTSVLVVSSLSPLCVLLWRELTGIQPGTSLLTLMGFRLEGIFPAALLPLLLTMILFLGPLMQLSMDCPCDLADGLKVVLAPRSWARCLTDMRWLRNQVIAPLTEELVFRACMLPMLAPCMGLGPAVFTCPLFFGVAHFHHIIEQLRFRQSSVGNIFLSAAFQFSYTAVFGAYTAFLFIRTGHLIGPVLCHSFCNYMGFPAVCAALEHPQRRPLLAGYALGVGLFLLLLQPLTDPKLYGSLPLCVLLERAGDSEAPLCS
# [9] = target: Trypsin (Sus scrofa, UniProt P00761); test: porcine trypsin inhibitors, dose response, selectivity assay for Rce1 protease inhibitor project, biochemical, quenched peptide fluorescence, cherry-pick (AID 488789)
# Trypsin, sequence (P00761 whole entry): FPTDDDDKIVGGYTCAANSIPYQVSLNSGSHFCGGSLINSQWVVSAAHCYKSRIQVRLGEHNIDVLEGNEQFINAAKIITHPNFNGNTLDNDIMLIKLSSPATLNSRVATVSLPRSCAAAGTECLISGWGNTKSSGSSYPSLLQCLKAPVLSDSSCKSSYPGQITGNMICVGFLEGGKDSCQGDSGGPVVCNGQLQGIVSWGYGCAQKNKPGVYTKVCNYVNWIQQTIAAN
# [10] = target: T4, Sentrin-specific protease 8 (Homo sapiens, UniProt Q96LD8); assay type: functional;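 note: luminescence read-out of SENP8 inhibition, dose-response confirmation following an ultra-high-throughput screen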
# T4 sequence (Q96LD8 whole entry): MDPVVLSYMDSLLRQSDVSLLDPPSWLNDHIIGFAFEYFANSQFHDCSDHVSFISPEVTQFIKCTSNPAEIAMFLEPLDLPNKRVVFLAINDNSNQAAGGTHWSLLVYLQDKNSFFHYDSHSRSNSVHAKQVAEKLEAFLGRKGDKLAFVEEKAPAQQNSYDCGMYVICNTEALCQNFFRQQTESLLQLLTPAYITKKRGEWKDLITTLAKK
# [11] = target: T5, Sentrin-specific protease 6 (Homo sapiens, UniProt Q9GZR1); assay type: functional;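 note: Luminescence-based dose-response confirmatory assay of SENP6 inhibition, following up an ultra-high-throughput screen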
# T5 sequence (Q9GZR1 whole entry): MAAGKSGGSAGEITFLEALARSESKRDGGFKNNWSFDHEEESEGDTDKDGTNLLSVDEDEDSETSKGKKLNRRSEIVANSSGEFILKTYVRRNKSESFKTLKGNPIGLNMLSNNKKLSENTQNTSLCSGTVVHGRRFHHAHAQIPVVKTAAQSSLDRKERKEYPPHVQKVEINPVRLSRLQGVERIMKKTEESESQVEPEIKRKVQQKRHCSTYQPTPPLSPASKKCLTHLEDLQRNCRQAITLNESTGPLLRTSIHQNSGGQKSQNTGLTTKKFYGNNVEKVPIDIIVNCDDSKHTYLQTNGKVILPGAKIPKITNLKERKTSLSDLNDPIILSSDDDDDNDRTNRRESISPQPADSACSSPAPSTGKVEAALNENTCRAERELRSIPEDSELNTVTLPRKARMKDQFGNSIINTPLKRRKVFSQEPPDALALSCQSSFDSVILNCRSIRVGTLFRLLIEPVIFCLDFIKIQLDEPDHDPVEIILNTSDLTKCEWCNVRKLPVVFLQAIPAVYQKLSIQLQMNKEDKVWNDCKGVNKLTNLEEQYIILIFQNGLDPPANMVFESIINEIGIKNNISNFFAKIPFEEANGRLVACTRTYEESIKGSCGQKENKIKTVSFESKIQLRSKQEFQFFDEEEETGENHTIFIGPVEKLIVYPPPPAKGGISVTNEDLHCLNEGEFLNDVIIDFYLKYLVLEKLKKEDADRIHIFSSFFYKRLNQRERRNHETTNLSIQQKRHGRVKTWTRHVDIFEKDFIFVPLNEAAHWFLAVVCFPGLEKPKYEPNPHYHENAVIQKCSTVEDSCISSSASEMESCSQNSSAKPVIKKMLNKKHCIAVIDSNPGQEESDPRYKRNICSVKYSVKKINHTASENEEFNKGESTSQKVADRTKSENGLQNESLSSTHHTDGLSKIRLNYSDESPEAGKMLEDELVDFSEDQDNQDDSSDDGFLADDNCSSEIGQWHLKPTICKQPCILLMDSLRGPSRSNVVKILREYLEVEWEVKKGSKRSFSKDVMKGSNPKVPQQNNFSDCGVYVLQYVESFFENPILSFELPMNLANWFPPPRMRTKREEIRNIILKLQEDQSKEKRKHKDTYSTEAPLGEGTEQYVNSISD
# [12] = target: T6, Caspase-3 (Homo sapiens, UniProt P42574); assay type: functional;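 note: Dose-response selectivity test against caspase-3 for candidate inhibitors of sentrin-specific proteases (SENPs)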
# T6 sequence (P42574 whole entry): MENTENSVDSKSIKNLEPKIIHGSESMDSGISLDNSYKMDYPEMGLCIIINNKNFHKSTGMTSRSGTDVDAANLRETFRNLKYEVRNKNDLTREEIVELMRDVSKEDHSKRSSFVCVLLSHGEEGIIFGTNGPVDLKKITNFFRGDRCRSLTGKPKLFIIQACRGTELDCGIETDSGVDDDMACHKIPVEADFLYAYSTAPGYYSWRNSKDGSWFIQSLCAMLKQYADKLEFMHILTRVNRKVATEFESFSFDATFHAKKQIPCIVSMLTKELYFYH
# [13] = target: T7, Sentrin-specific protease 7 (Homo sapiens, UniProt Q9BQF6); assay type: functional;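 note: Luminescence-based dose-response confirmation of ultra-high-throughput screening hits, measuring inhibition of SENP7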
# T7 sequence (Q9BQF6 whole entry): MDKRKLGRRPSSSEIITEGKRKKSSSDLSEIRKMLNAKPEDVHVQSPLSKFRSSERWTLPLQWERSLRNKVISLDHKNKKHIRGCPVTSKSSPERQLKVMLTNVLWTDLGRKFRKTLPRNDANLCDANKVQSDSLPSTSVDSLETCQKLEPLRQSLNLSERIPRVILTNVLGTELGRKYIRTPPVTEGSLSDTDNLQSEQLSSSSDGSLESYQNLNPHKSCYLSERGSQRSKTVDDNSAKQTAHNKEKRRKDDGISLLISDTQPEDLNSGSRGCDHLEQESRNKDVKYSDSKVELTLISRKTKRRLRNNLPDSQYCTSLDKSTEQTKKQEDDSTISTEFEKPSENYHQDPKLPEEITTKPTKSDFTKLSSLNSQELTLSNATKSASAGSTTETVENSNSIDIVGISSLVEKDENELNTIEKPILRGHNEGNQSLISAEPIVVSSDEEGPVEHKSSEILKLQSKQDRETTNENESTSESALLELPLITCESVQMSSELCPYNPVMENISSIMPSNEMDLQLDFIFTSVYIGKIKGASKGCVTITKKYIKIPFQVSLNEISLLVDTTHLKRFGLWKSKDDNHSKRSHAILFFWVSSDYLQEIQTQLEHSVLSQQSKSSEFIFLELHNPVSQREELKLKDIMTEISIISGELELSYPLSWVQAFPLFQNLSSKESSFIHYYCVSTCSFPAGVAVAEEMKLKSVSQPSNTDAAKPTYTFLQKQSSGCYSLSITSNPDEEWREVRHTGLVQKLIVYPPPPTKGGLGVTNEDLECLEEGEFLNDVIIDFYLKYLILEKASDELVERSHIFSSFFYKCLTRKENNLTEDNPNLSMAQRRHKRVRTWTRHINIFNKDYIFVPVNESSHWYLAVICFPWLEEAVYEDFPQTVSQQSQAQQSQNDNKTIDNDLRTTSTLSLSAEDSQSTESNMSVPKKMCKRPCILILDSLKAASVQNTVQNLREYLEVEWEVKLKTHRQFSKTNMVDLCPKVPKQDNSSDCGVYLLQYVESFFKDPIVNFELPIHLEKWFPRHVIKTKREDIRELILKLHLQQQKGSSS
# [14] = target: Eukaryotic translation initiation factor 4E (Mus musculus, UniProt P63073); test: eIF4E–eIF4G protein interaction inhibitors, dose response, biochemical, TR-FRET (AID 855); assay type: functional;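 note: potency for disrupting eIF4E binding to eIF4GI seen as loss of FRET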
# Eukaryotic translation initiation factor 4E, sequence (P63073 whole entry): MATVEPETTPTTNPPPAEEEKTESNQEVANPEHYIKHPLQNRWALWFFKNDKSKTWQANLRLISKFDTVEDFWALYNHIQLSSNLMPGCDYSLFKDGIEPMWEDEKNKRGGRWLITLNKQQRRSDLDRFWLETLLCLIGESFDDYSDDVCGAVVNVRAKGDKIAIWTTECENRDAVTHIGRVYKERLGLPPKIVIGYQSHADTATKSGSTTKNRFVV
# [15] = test system: HEK293; test: cells; assay type: functional, cell-based; details: Homo sapiens; remark: listed apart in the source
# [16] = test system: HEK293; test: NOD1 signaling inhibitors, primary screen, cell-based, luminescence, uHTS (AID 1578); assay type: functional; details: Homo sapiens
# [17] = test system: HEK293; test: cells; assay type: functional, cell-based; details: Homo sapiens; remark: listed apart in the source
# [18] = control 3'UTR Renilla luciferase suppression, dose response, counter-screen for Shn3 inhibitor project, cell-based, Clone20-Shn3RL, cherry-picked (AID 624133); assay type: functional
# [19] = Shn3 3'UTR reporter inhibitors, dose response, cell-based, Clone20 osteoblasts, firefly luciferase, cherry-picked (AID 624132); assay type: functional;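 note: firefly luciferase luminescence from reporter carrying the Shn3 3'UTR in osteoblasts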
# [20] = HepG2 cell cytotoxicity, dose response, cytotoxicity control for Shn3 inhibitor project, CellTiter-Glo, cherry-picked (AID 624134); assay type: functional, cell-based
# [21] = test system: HEK293; test: NOD2 signaling inhibitors in MDP-stimulated cells, cell-based, uHTS, luminescence (AID 2001); assay type: functional; details: Homo sapiens
smiles,measurement,setting,value
COc1ccc(CNCC(=O)Nc2sccc2C#N)cc1,AC50,[1],25 µM (active)
O=[N+]([O-])c1ccc(N2CCN(C(S)=NCc3ccc(Cl)cc3)CC2)cc1,IC50,[2],1.85 µM (active)
same,AC50,[3],6.14 µM (active)
same,IC50,[4],2.83 µM (active)
CCN(CC)N=Nc1cccc(NC(C)=O)c1,IC50,[5],> 67.5 µM (inactive)
same,IC50,[6],> 67.5 µM (inactive)
CCOc1cc(C=C2C(=O)NC(=O)NC2=O)cc([N+](=O)[O-])c1O,AC50,[1],2.49 µM (active)
CCOc1cc(/C=C2\C(=O)NC(=O)N(C)C2=O)cc([N+](=O)[O-])c1O,IC50,[7],19.9 µM (active)
same,IC50,[5],> 67.5 µM (inactive)
same,IC50,[6],51.7 µM (inactive)
O=C(O)c1ccc(N/N=C/c2ccc(-c3ccccc3Cl)o2)cc1,AC50,[8],54.5 µM (active)
NS(=O)(=O)c1ccc(CCNC(=O)c2ccc3ccccc3n2)cc1,AC50,[8],4.74 µM (active)
same,AC50,[9],4.75 µM (active)
CCOc1ccc2nc(NC(=O)CSc3cnn[nH]3)sc2c1,IC50,[10],44.1 µM (active)
same,IC50,[11],32.8 µM (active)
same,IC50,[12],16.3 µM (active)
same,IC50,[13],11.7 µM (active)
COc1ccc(CC2C(=O)NC(=O)N(c3ccccc3)C2=O)c(OC)c1 (stereo not drawn),AC50,[1],7.62 µM (active)
same,IC50,[14],> 64 µM (inactive)
CCN1CCN(Cc2ccc(NC(=O)c3ccc(C)c(NC(=O)C(=O)c4c[nH]c5ccccc45)c3)cc2C(F)(F)F)CC1,IC50,[15],4.96 µM (active)
same,EC50,[16],17.2 µM (active)
same,IC50,[17],18.5 µM (active)
same,IC50,[2],2.15 µM (active)
same,IC50,[4],1.09 µM (active)
same,AC50,[18],3.42 µM (active)
same,AC50,[19],7.49 µM (active)
same,AC50,[20],9.8 µM (active)
same,IC50,[21],13.1 µM (inactive)
